# Data taken from ChEMBL document CHEMBL2390818, “Peripherally acting novel lipo-endomorphin-1 peptides in neuropathic pain without producing constipation” (Bioorg Med Chem, 2013).
# The source made the active and inactive calls. Peptide text beside a SMILES is read from it.
# Key:
# Rattus norvegicus [1] = test: Antiallodynic activity in iv dosed Sprague-Dawley rat chronic constriction injury model assessed as change in ipsilateral hindpaw withdrawal threshold administered as single bolus dose separated by 2 to 3 days wash-out period; format: functional
# Rattus norvegicus [2] = test: Antiallodynic activity in Sprague-Dawley rat chronic constriction injury model assessed as change in ipsilateral hindpaw withdrawal threshold at 0.16 to 16 umol/kg, iv administered as single bolus dose separated by 2 to 3 days wash-out period; format: functional, organism-based
# Rattus norvegicus [3] = test: Antinociceptive activity in contralateral hindpaw of Sprague-Dawley rat chronic constriction injury model at 5 umol/kg, iv administered as single bolus dose separated by 2 to 3 days wash-out period; format: functional, organism-based
# Rattus norvegicus [4] = test: Toxicity in Sprague-Dawley rat castor oil-induced diarrhoea model assessed as induction of constipation at 1.6 to 16 umol/kg, iv administered as single bolus dose incubated for 5 mins prior to castor oil-challenge measured after 8 hrs; format: organism-based; details: in vivo
# Rattus norvegicus [5] = test: Antiallodynic activity in Sprague-Dawley rat chronic constriction injury model assessed as change in ipsilateral hindpaw withdrawal threshold at 0.5 to 5 umol/kg, iv administered as single bolus dose; format: functional, organism-based
# Rattus norvegicus [6] = test: Toxicity in Sprague-Dawley rat assessed as induction of respiratory depression measured as change in hypercapnia-induced stimulation of minute ventilation at 1.6 umol/kg, iv administered as single bolus dose after 0.5 to 2 hrs; format: organism-based; details: in vivo
# Rattus norvegicus [7] = test: Toxicity in Sprague-Dawley rat assessed as induction of constipation measured as gastrointestinal propulsion rate at 16 umol/kg, iv administered as single bolus dose prior to aqueous activated charcoal suspension treatment measured after 1 hr (reference value: 65.3 +/- 3.1%); format: organism-based; details: in vivo
# Rattus norvegicus [8] = test: Antiallodynic activity in iv dosed Sprague-Dawley rat chronic constriction injury model assessed as change in ipsilateral hindpaw withdrawal threshold administered as single bolus dose separated by 2 to 3 days wash-out period measured at 15 mins to 2 hrs post dose; format: functional, organism-based
# Rattus norvegicus [9] = test: Antiallodynic activity in iv dosed Sprague-Dawley rat chronic constriction injury model assessed as change in ipsilateral hindpaw withdrawal threshold administered as single bolus dose; format: functional
# Rattus norvegicus [10] = test: Antiallodynic activity in Sprague-Dawley rat chronic constriction injury model assessed as change in ipsilateral hindpaw withdrawal threshold at 0.5 umol/kg, iv administered as single bolus dose separated by 2 to 3 days wash-out period; format: functional, organism-based
smiles,measurement,setting,value
CN1CC[C@]23c4c5ccc(O)c4O[C@H]2[C@@H](O)C=C[C@H]3[C@H]1C5,ED50,Rattus norvegicus [1],2.64 µmol/kg
Cc1cc(O)cc(C)c1C[C@H](N)C(=O)N1CCC[C@H]1C(=O)N[C@@H](Cc1c[nH]c2ccccc12)C(=O)N[C@@H](Cc1ccccc1)C(N)=O,Activity,Rattus norvegicus [2],inactive
NC(=O)[C@H](Cc1ccccc1)NC(=O)[C@H](Cc1c[nH]c2ccccc12)NC(=O)[C@@H]1CCCN1C(=O)[C@@H](N)Cc1ccc(O)cc1,Activity,Rattus norvegicus [2],inactive
CCCCCCC(N)C(=O)N[C@@H](Cc1ccc(O)cc1)C(=O)N1CCC[C@H]1C(=O)N[C@@H](Cc1c[nH]c2ccccc12)C(=O)N[C@@H](Cc1ccccc1)C(N)=O (stereo partly specified) (HELM PEPTIDE1{[CCCCCCC(N)C(=O)[*:2]].Y.P.W.F.[am]}$$$$V2.0),Activity,Rattus norvegicus [3],inactive
same,Activity,Rattus norvegicus [4],Non-toxic
same,Activity,Rattus norvegicus [5],Active
same,ED50,Rattus norvegicus [1],6.58 µmol/kg
same,Activity,Rattus norvegicus [6],Non-toxic
same,Activity,Rattus norvegicus [7],77%
same,Activity,Rattus norvegicus [8],Dose-dependent effect
same,ED50,Rattus norvegicus [9],6.64 µmol/kg
same,Activity,Rattus norvegicus [10],Active
CCCCCCC(N)C(=O)N[C@@H](Cc1c(C)cc(O)cc1C)C(=O)N1CCC[C@H]1C(=O)N[C@@H](Cc1c[nH]c2ccccc12)C(=O)N[C@@H](Cc1ccccc1)C(N)=O (stereo partly specified) (HELM PEPTIDE1{[CCCCCCC(N)C(=O)[*:2]].[Cc1cc(O)cc(C)c1C[C@H](N[*:1])C(=O)[*:2]].P.W.F.[am]}$$$$V2.0),Activity,Rattus norvegicus [3],inactive
same,ED50,Rattus norvegicus [1],6.18 µmol/kg
same,Activity,Rattus norvegicus [8],Dose-dependent effect
same,Activity,Rattus norvegicus [10],Active
